Data reported in patent publication EP2265599B1, “CRYSTAL FORM OF PHENYLAMINOPYRIMIDINE DERIVATIVE” (Natco Pharma Limited, priority 2008, dated 2009).

Experiments:
Baf3Wt = assay: In vivo anti-leukemic activity, blast cell count in blood smears, Baf3Wt implanted nude mice; conditions: Imatinib 10mg/kg, AN019 20mg/kg, AN024 20mg/kg, oral gavage or ip from day 15; up to day 42
Text: (§1) Blood smears were obtained via the tail vein or via the femoral vein every 6th day and blast cells counted and graphically represented.
(§2) Abdominal swelling and decrease in activity was monitored daily, blood smear taken via the tail vein or the femoral vein every 6th day and H&E stained as per standard protocols. 42 days after implantation, mice were sacrificed and spleens harvested.
(§3) Nude mice were intraperitoneally implanted with Baf3 mutant cells (wt, T315I, M351T or E255K). […] Blood was drawn from the femoral vein or tail vein every 6th day and blast cell count determined and graphically represented.

Baf3T315I = assay: In vivo anti-leukemic activity, blast cell count in blood smears, Baf3T315I implanted nude mice; conditions: Imatinib 10mg/kg, AN019 20mg/kg, AN024 20mg/kg, oral gavage or ip from day 15; up to day 42
Text: as §1, §2, §3

Baf3M351T = assay: In vivo anti-leukemic activity, blast cell count in blood smears, Baf3M351T implanted nude mice; conditions: Imatinib 10mg/kg, AN019 20mg/kg, AN024 20mg/kg, oral gavage or ip from day 15; up to day 42
Text: as §1, §2, §3

Baf3E255K = assay: In vivo anti-leukemic activity, blast cell count in blood smears, Baf3E255K implanted nude mice; conditions: Imatinib 10mg/kg, AN019 20mg/kg, AN024 20mg/kg, oral gavage or ip from day 15; up to day 42
Text: as §1, §2, §3

[1] = test system: K562 luc human leukemia cells; assay: Low dose oral treatment of nude mice implanted with K562 luc cells (luciferase expression); type: in vivo; conditions: oral administration
Protocol: Nude mice (nu/nu) were implanted with K562 cells (1x106) normal/luc via tail vein. Five mice were used per group and divided into 24 groups + 2 control. All groups were implanted with K562 normal/luc cells. Of the 24 groups, 12 were used for luciferase studies whereas the other 12 were used for blood smear count studies.
Drugs were administered by oral gavage (2% gum acacia and 2% SLS in an aqueous suspension).

[2] = test system: K562 luc human leukemia cells; assay: Drug effectiveness (De) from in vivo luciferase studies; parameters: species or system nude mice
Text: [formula] Where: • Σalive = total number of mice alive per concentration at the end of experiment times photon count, Eluc = total number of mice alive showing luciferase expression per concentration at end of experiment and c represents control untreated animals times photon count and ∑c-initial represents the initial number of animals in control at start of experiment times photon count.

K5621uc cells = assay: Drug temporal penetrance (Tp) after stopping drug treatment; type: in vivo, nude mice; conditions: AN019 20mg/kg, AN024 20mg/kg, Imatinib 10mg/kg, daily ip from day 15, stopped on day 35, imaged till day 45
Protocol: The temporal penetrance was calculated applying the following equation, Tp=. (((P)/(n))a -((P)/(n))ter)/(((P)/(n))a -((P)/(n))b) [formula]
Where: • P=photon counts at day 'a', day 'ter', or day 'b' where 'a' is the day when drug treatment was stopped and 'ter' is the day when the experiment was terminated and 'b' is the day where P is minimum after day a but before day 'ter'. • n=number of animals alive when P was measured.
The animals were imaged at 6 day intervals post transplantation. […] Drug treatment was stopped on day 35 and animals were imaged till day 45, and calculated as described in methods.

ZR-71 = assay: Matrigel invasion assay (modified Boyden chamber), ZR-71; type: cell-based; conditions: cells treated 48 h
Protocol: (§4) The in vitro invasiveness of 4910, 5310 and U87 glioma cells and MDAMB231 and ZR71 breast cancer cells in the presence of specified concentrations of compounds were assessed using a modified Boyden chamber assay. Cells were treated with these compounds for 48 h. 1x10^6 cells were suspended in 600µl of serum-free medium supplemented with 0.2% BSA and placed in the upper compartment of the transwell chambers (Coming Costar Fischer Scientific Cat #07-200-158, Pittsburgh PA) coated with Matrigel (0.7 mg/ml). The lower compartment of the chamber was filled with 200 µl of serum medium and the cells were allowed to migrate for 24 h. After incubation, the cells were fixed and stained with Hema-3 and quantified as previously described (Mohanam et al. 1993). The migrated cells were imaged microscopically to determine the reduction in invasiveness induced by the compounds of this invention.
(§5) The in vitro invasiveness of 4910, 5310 and U87 glioma cells and MDAMB231 and ZR71 breast cancer cells in the presence of specified concentrations of compounds were assessed using a modified Boyden chamber assay. Cells were treated with these compounds for 48 h.

MDA-MB-231 = assay: Matrigel invasion assay (modified Boyden chamber), MDA-MB-231; type: cell-based; conditions: cells treated 48 h
Protocol: as §4, §5

4910 = assay: Matrigel invasion assay (modified Boyden chamber), 4910; type: cell-based, human; conditions: cells treated 48 h
Protocol: as §4, §5

5310 = assay: Matrigel invasion assay (modified Boyden chamber), 5310; type: cell-based; conditions: cells treated 48 h
Protocol: as §4, §5

MDA-MB-231 cells = assay: In vitro angiogenic assay (conditioned media on human dermal endothelial cells), MDA-MB-231; type: cell-based; conditions: control condition and after radiation
Protocol: (§6) The in vitro angiogenesis of 4910, 5310 and U87 glioma cells and MDAMB231 and ZR71 breast cancer cells in the presence of specified concentrations of compounds were determined as follows, cells (2x10^4/well) were seeded in 8-well chamber slides and were treated with various concentrations of test compounds. After a 24 h incubation period, the conditioned media was removed and added to a 4x 10^4 human dermal endothelial cell (monolayer in 8-well chamber slides) and the human dermal endothelial cells were allowed to grow for 72 h. Cells were then fixed in 3.7% formaldehyde and stained with H&E and photographed.

[3] = test system: Glioma xenograft cells 4910; assay: In vitro angiogenic assay (conditioned media on human dermal endothelial cells), 4910; type: cell-based; conditions: 4910 cells, with and without radiation
Protocol: as §6

5310 cells [4] = assay: In vitro angiogenic assay (conditioned media on human dermal endothelial cells), 5310; type: cell-based; conditions: control conditions and after radiation
Protocol: as §6

5310 cells [5] = assay: Western blot analysis for AKT, ERK and Pi3k, 5310; type: cell-based
Protocol: (§7) Western blot analysis of 4910, 5310 and U87 glioma cells and MDAMB231 and ZR71 breast cancer cells in the presence of specified concentrations of compounds were assessed as per standard protocols. Cells were treated with AN019, AN024 or Temozolomide at the specified concentrations. 24h after treatment, cells were collected and cell lysates extracted. Equal quantities of proteins were fractionated by SDS-PAGE. The fractionated proteins were blotted on to nylon membranes and immunoprobed for AKT, ERK and Pi3k. Breast cancer cell protein isolates were additionally immunoprobed for EGFR, ErbB1, ErbB2 and ErbB3.

ZR71 = assay: Western blot analysis for AKT, ERK and Pi3k, ZR71; type: cell-based
Protocol: as §7

[6] = test system: K562 luciferase expressing cells; assay: Leukemic survival study, K562 luciferase expressing cells implanted intraperitoneally; type: in vivo, nude mice

## Cc1ccc(NC(=O)c2cc(C(F)(F)F)cc(C(F)(F)F)c2)cc1Nc1nccc(-c2cccnc2)n1 [AN019, (3,5-bis trifluoromethyl)-N-[4-methyl-3-(4-pyridin-3yl-pyrimidin-2ylamino)-phenyl]-benzamide]
Baf3Wt
  blast cell count in blood smears: complete regression of leukemic blast cells
Baf3T315I
  blast cell count in blood smears: significant decrease in blast cell count
Baf3M351T
  blast cell count in blood smears: significant decrease in blast cell count
Baf3E255K
  blast cell count in blood smears: significant decrease in blast cell count
[1]; 1mg/kg
  luciferase expression: did not induce a decrease in luciferase expression
[1]; 5mg/kg
  luciferase expression: caused fixation of leukemia cells at constant expression levels
[1]; 10mg/kg
  luciferase expression: caused a decrease in luciferase expression
[1]; 20mg/kg
  luciferase expression: caused a decrease in luciferase expression
[2]; 5mg/kg
  De (drug effectiveness): 25.82%
[2]; 10mg/kg
  De (drug effectiveness): 78.20%
[2]; 20mg/kg
  De (drug effectiveness): 83.40%
[2]; 40mg/kg
  De (drug effectiveness): 85.20%
K5621uc cells
  Tp (temporal penetrance): 2.0
ZR-71; ZR-71, with radiation
  +Radiation % Invasion: 19%
ZR-71; ZR-71, without radiation
  -Radiation % Invasion: 33%
MDA-MB-231; MDA-MB-231, with radiation
  +Radiation % Invasion: 15%
MDA-MB-231; MDA-MB-231, without radiation
  -Radiation % Invasion: 45%
4910; 4910, with radiation
  +Radiation % Invasion: 15%
4910; 4910, without radiation
  -Radiation % Invasion: 42%
5310; 5310, with radiation
  +Radiation % Invasion: 6%
5310; 5310, without radiation
  -Radiation % Invasion: 5%
MDA-MB-231 cells
  inhibition of angiogenesis: a slight inhibition was observed in both control and radiation treatments
[3]
  inhibition of angiogenesis: inhibition of angiogenesis similar to MDA-MB-231 cells with an increase in angiogenic inhibition after radiation
5310 cells [4]
  inhibition of angiogenesis: inhibition of angiogenesis was greater in control conditions than after radiation treatment
5310 cells [5]
  AKT expression levels: decrease in AKT expression levels
5310 cells [5]; without and after radiation
  Levels of PI3k: almost undetectable in AN019 treated cells without radiation but reappeared after radiation treatment
ZR71; ZR71 (cell line by context), with and without radiation
  PI3k levels: absent in AN019 treatments both with and without radiation
ZR71; ZR71, unirradiated and after radiation
  AKT levels: decrease in AKT levels, which was enhanced after radiation
[6]; drug treatment stopped at day 42, based on luminescence (Fig. 20)
  curative effect after withdrawal of drug treatment (animals cured at day 58): continued to show curative effect
[6]; drug treatment withdrawn on day 42 (Fig. 21)
  Blast cell count from blood smears after withdrawal of drug treatment: showed effectiveness after withdrawal of drug treatment
[6]; treatment from day 15 till day 42, then withdrawn, AN024 death determined to be other than leukemia
  mortality: did not show any mortality
[6]; treatment from day 15 till day 42, then withdrawn, AN024 on day 55
  animals showing no signs of leukemia / complete absence of leukemic symptoms: 7 of the 10 animals
